Reference: patent publication US8399465B2, “Compounds with two fused bicyclic heteroaryl moieties as modulators of leukotriene A4 hydrolase” (Janssen Pharmaceutica NV, priority 2009, dated 2013)

How the values were obtained:
[1] = tested on: LTB4 production in murine blood (LTA4H); test: LTB4 production by calcium ionophore-stimulated murine blood for LTA4H inhibitor activity; assay type: cell-based, CD-1 mice; settings: Mus musculus; murine blood diluted 1 in 15, A23187 stimulated; single determination or average; mark after value = form tested: ′ free base, ″ hydrochloride, ^ formate; read-out: IC50
Procedure, shortened: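 LTB4 was measured by ELISA in supernatants after calcium ionophore A23187 stimulation (final 7 μg/mL, 30 min, 37° C) of CD-1 mouse blood collected on heparin. Compound was preincubated with the blood for 15 min beforehand. Values come from one determination or average several.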

[2] = target: T1, recombinant human LTA4 hydrolase (rhLTA4H) (Homo sapiens, UniProt P09960); test: Recombinant human LTA4 hydrolase assay for LTA4 hydrolase inhibitor activity; assay type: biochemical; settings: rhLTA4H, LTB4 by immunoassay; single determination or average of two or more; mark after value = form tested: ′ free base, ″ hydrochloride, ^ formate; read-out: IC50
T1 construct: made in house; host or cells: Spodoptera frugiperda (Sf-9) cells, baculovirus (pFastBac1)
T1 sequence (P09960 1-611): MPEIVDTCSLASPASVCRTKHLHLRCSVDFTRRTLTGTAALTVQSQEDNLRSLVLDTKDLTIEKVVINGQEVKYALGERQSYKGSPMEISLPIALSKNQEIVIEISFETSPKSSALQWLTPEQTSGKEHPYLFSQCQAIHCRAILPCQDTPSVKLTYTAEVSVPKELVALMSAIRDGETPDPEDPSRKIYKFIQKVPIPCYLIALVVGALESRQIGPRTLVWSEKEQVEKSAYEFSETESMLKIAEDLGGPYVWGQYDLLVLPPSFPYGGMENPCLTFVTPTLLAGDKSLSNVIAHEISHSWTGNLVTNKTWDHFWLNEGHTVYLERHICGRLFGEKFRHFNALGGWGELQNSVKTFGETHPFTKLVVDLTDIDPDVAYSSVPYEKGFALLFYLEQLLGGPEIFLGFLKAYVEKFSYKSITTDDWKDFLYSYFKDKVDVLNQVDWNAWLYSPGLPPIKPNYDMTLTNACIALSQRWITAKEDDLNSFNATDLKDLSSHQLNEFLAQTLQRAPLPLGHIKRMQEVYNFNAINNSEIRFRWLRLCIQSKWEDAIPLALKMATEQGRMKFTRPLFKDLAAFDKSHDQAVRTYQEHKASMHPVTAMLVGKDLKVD
Procedure, shortened: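 LTB4 formation, measured by enzyme immunoassay, was the read-out. The enzyme, recombinant human LTA4H expressed in Sf-9 insect cells (10 ng per reaction), was exposed to compound for 10 min at room temperature before hydrolysed-ester LTA4 substrate was added for 30 min. Enzyme-free negatives were included.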

Compound | IC50 [1] [nM] | IC50 [2] [nM]
CC(=O)N1C[C@H]2C[C@@H]1CN2Cc1cc2cc(Oc3nc4ncccc4s3)ccc2o1 [Example 102, (1R,4R)-1-{5-[5-(Thiazolo[4,5-b]pyridin-2-yloxy)-benzofuran-2-ylmethyl]-2,5-diaza-bicyclo[2.2.1]hept-2-yl}-ethanone] | 293 | 12
NC(=O)C1CCN(Cc2cc3cc(Oc4nc5ccccc5s4)ccc3o2)CC1 [Example 105, 1-[5-(Benzothiazol-2-yloxy)-benzofuran-2-ylmethyl]-piperidine-4-carboxylic acid amide] | 488 | 97
CN(Cc1ccccc1)Cc1cc2cc(Oc3nc4ncccc4s3)ccc2o1 [Example 114, Benzyl-methyl-[5-(thiazolo[4,5-b]pyridin-2-yloxy)-benzofuran-2-ylmethyl]-amine] | 85 | 15
CC(=O)N[C@H]1C[C@H]2CC[C@@H](C1)N2CCc1coc2cc(Oc3nc4ccccc4s3)ccc12 [Example 129, meso-endo-N-(8-{2-[6-(Benzothiazol-2-yloxy)-benzofuran-3-yl]-ethyl}-8-aza-bicyclo[3.2.1]oct-3-yl)-acetamide] | 180 | 13
CC(=O)N[C@H]1C[C@H]2CC[C@@H](C1)N2Cc1cc2ccc(Oc3nc4ccccc4s3)cc2s1 [Example 134, meso-endo-N-{8-[6-(Benzothiazol-2-yloxy)-benzo[b]thiophen-2-ylmethyl]-8-aza-bicyclo[3.2.1]oct-3-yl}-acetamide] | 740 | 43
CCOC(=O)C1CCN(Cc2c[nH]c3cc(Oc4nc5ccccc5s4)ccc23)CC1 [Example 139, 1-[6-(Benzothiazol-2-yloxy)-1H-indol-3-ylmethyl]-piperidine-4-carboxylic acid ethyl ester] | 467 | 12
CCOC(=O)C1CCN(Cc2c[nH]c3cc(Oc4nc5cccnc5s4)ccc23)CC1 [Example 140, 1-[6-(Thiazolo[5,4-b]pyridin-2-yloxy)-1H-indol-3-ylmethyl]-piperidine-4-carboxylic acid ethyl ester] | 8510 | 21
COC(=O)CC1CCN(Cc2c[nH]c3cc(Oc4nc5ccccc5s4)ccc23)CC1 [Example 141, {1-[6-(Benzothiazol-2-yloxy)-1H-indol-3-ylmethyl]-piperidin-4-yl}-acetic acid methyl ester] | 640 | 20
CCOC(=O)[C@@H]1CCCN(Cc2c[nH]c3cc(Oc4nc5ccccc5s4)ccc23)C1 [Example 144, (3R)-1-[6-(Benzothiazol-2-yloxy)-1H-indol-3-ylmethyl]-piperidine-3-carboxylic acid ethyl ester] | 2440 | 78
CC(C)(C)OC(=O)NC1CCN(Cc2c[nH]c3cc(Oc4nc5ccccc5s4)ccc23)CC1 [Example 145, {1-[6-(Benzothiazol-2-yloxy)-1H-indol-3-ylmethyl]-piperidin-4-yl}-carbamic acid tert-butyl ester] | 171 | 9.7
CC(C)(C)OC(=O)N1CC2CN(Cc3c[nH]c4cc(Oc5nc6ccccc6s5)ccc34)CC2C1 (centres unmarked) [Example 146, 5-[6-(Benzothiazol-2-yloxy)-1H-indol-3-ylmethyl]-hexahydro-pyrrolo[3,4-c]pyrrole-2-carboxylic acid tert-butyl ester] | 582 | 17
CC(C)(C)OC(=O)N1C[C@@H]2C[C@H]1CN2Cc1c[nH]c2cc(Oc3nc4ccccc4s3)ccc12 [Example 147, (1S,4S)-5-[6-(Benzothiazol-2-yloxy)-1H-indol-3-ylmethyl]-2,5-diaza-bicyclo[2.2.1]heptane-2-carboxylic acid tert-butyl ester] | 568 | 12
NC(=O)N1CC2CN(Cc3coc4cc(Oc5nc6ncccc6s5)ccc34)CC2C1 (centres unmarked) [Example 161, 5-[6-(Thiazolo[4,5-b]pyridin-2-yloxy)-benzofuran-3-ylmethyl]-hexahydro-pyrrolo[3,4-c]pyrrole-2-carboxylic acid amide] | 69 | 9
